According to ChEMBL document CHEMBL1201862, “PubChem BioAssay data set” (2004):
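Test compounds were applied to cells in 96-well plates for 48 hours at 5 doses. GI50: concentration for 50% inhibition of growth.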 Calls of active or inactive are those of the source. Rule as the data show it: active = GI50 up to about 1.1 µM and inactive = higher.

Key:
Assay in all cases: NCI anticancer screen, dose series, 48 h
[1] = system: SR
[2] = system: U-251
[3] = system: HCT-116
[4] = system: UACC-257
[5] = system: DU-145
[6] = system: CAKI-1
[7] = system: SK-MEL-28
[8] = system: EKVX
[9] = system: NCI-H23
[10] = system: HT-29
[11] = system: OVCAR-5
[12] = system: OVCAR-8
[13] = system: HOP-62
[14] = system: NCI/ADR-RES
[15] = system: A498
[16] = system: HCT-15
[17] = system: SW-620
[18] = system: MDA-N

SMILES | GI50 [1] | GI50 [2] | GI50 [3] | GI50 [4] | GI50 [5] | GI50 [6] | GI50 [7] | GI50 [8] | GI50 [9] | GI50 [10] | GI50 [11] | GI50 [12] | GI50 [13] | GI50 [14] | GI50 [15] | GI50 [16] [µM] | GI50 [17] | GI50 [18]
Nc1ccccc1SCc1csc(-c2ccc(Cl)cc2)n1 | 6.61 µM (inactive) | 20.3 µM (inactive) | 29 µM (inactive) | 26.5 µM (inactive) | 34.5 µM (inactive) | 51.3 µM (inactive) | 30.5 µM (inactive) | 25.9 µM (inactive) | 24.7 µM (inactive) | 23.6 µM (inactive) | 39.1 µM (inactive) | 30.5 µM (inactive) | 30.3 µM (inactive) | 21.5 µM (inactive) | 23.3 µM (inactive) | 26.1 | 29.2 µM (inactive) | –
Fc1ccc(Oc2nc3ccccc3nc2-c2ccccc2)cc1 | 44.6 µM (inactive) | 50.5 µM (inactive) | > 100 µM (inactive) | > 100 µM (inactive) | > 100 µM (inactive) | > 100 µM (inactive) | > 100 µM (inactive) | > 100 µM (inactive) | 42.5 µM (inactive) | > 100 µM (inactive) | > 100 µM (inactive) | – | 88.9 µM (inactive) | – | > 100 µM (inactive) | > 100 | > 100 µM (inactive) | –
COc1ccc(Nc2nc3ccc(C(F)(F)F)cc3nc2-c2ccccc2)cc1OC | 21.4 µM (inactive) | 34.1 µM (inactive) | 27.4 µM (inactive) | 38.5 µM (inactive) | – | 60.4 µM (inactive) | > 100 µM (inactive) | 20.7 µM (inactive) | 32.4 µM (inactive) | 6.65 µM (inactive) | 52.7 µM (inactive) | 58.6 µM (inactive) | > 100 µM (inactive) | – | 21.3 µM (inactive) | 15.9 | 68.4 µM (inactive) | –
Cc1ccc(C)n1-c1ccccc1C1C=CN(C(=O)OC(C)(C)C)C=C1 | – | 26.3 µM (inactive) | 15 µM (inactive) | 34.7 µM (inactive) | 56.4 µM (inactive) | 33.3 µM (inactive) | 44.9 µM (inactive) | 16.4 µM (inactive) | 27.5 µM (inactive) | 12.1 µM (inactive) | 29.6 µM (inactive) | 32.7 µM (inactive) | 31.4 µM (inactive) | 27.6 µM (inactive) | 50.5 µM (inactive) | 20.6 | 19.2 µM (inactive) | 46.2 µM (inactive)
COc1ccc(NC(=S)N/N=C\c2ccc(NC(C)=O)cc2)cc1 | 14.2 µM (inactive) | > 100 µM (inactive) | > 100 µM (inactive) | > 100 µM (inactive) | > 100 µM (inactive) | > 100 µM (inactive) | > 100 µM (inactive) | > 100 µM (inactive) | > 100 µM (inactive) | > 100 µM (inactive) | > 100 µM (inactive) | – | > 100 µM (inactive) | – | – | – | > 100 µM (inactive) | > 100 µM (inactive)
CCOC(=O)C1(Cc2c[nH]c3ccccc23)C(O)CCCN1C(C)=O (stereo unspecified) | 81.5 µM (inactive) | > 100 µM (inactive) | > 100 µM (inactive) | > 100 µM (inactive) | > 100 µM (inactive) | > 100 µM (inactive) | > 100 µM (inactive) | > 100 µM (inactive) | > 100 µM (inactive) | > 100 µM (inactive) | > 100 µM (inactive) | > 100 µM (inactive) | > 100 µM (inactive) | > 100 µM (inactive) | > 100 µM (inactive) | > 100 | > 100 µM (inactive) | –
CC(O)c1cc2c(s1)C(=O)c1c(C(C)O)csc1C2=O (stereo unspecified) | – | 0.316 µM (active) | 0.14 µM (active) | 0.0803 µM (active) | 0.119 µM (active) | 0.382 µM (active) | 0.185 µM (active) | 0.364 µM (active) | 0.0561 µM (active) | 0.586 µM (active) | 0.277 µM (active) | 0.22 µM (active) | 0.199 µM (active) | 0.146 µM (active) | 0.21 µM (active) | 0.133 | 0.118 µM (active) | 0.0226 µM (active)
Cc1c(Cl)c(S(N)(=O)=O)cc2c1N=CNS2(=O)=O | – | > 100 µM (inactive) | > 100 µM (inactive) | > 100 µM (inactive) | > 100 µM (inactive) | > 100 µM (inactive) | > 100 µM (inactive) | 0.507 µM (active) | > 100 µM (inactive) | > 100 µM (inactive) | > 100 µM (inactive) | > 100 µM (inactive) | > 100 µM (inactive) | > 100 µM (inactive) | > 100 µM (inactive) | > 100 | > 100 µM (inactive) | > 100 µM (inactive)
N#CC(c1nc2ccccc2s1)c1nc(Cl)ncc1Br (stereo unspecified) | – | 29.4 µM (inactive) | 23 µM (inactive) | 77.4 µM (inactive) | 45.7 µM (inactive) | 33.4 µM (inactive) | 97.9 µM (inactive) | 41.8 µM (inactive) | 23.6 µM (inactive) | 46.5 µM (inactive) | > 100 µM (inactive) | 30.4 µM (inactive) | 34.2 µM (inactive) | 30 µM (inactive) | > 100 µM (inactive) | 29.1 | 42.6 µM (inactive) | 36 µM (inactive)
